What was measured:
3T3L1 cell line [1] = test: Cytotoxicity by CCK-8 analysis kit in 3T3L1 cell line; assay type: cell-based, murine; conditions: differentiated 3T3L1 cell lines, 100 μM to 1000 μM, 24 hours
Description: (§1) The 3T3L1 cell line was cultured in a DMEM culture medium containing 10% FBS, 1% penicillin, 1% streptomycin, and 25 mM glucose. The 3T3L1 cell line was aliquoted into the above DMEM culture solution at a concentration of 2×10^5 cells/ml to induce adipocyte maturation for 3 days, and then replaced with a culture solution containing insulin to induce adipocyte maturation again for 3 days. Thereafter, the 3T3L1 cell line was further cultured in the above DMEM culture solution for 2 days to achieve complete maturation of adipocytes.
The cytotoxicity experiments of the peptides described in 1. above were performed by a CCK-8 analysis kit (Dojindo Laboratories, Japan). The 3T3L1 cell line was treated with peptides at various concentrations (uM) and cytotoxicity was analyzed after 24 hours.

3T3L1 cell line [2] = test: Free fatty acid (FFA) release into 3T3L1 cell culture solution; assay type: cell-based, murine; conditions: 3T3L1 treated with FasL and FBP-8
Description: as §1

Fas = target: T1, Fas (Mus musculus, UniProt P25446); test: Binding of fluorescently labeled peptide to Fas in liver and white adipose tissue sections of HFD mice; conditions: sections from high fat diet (HFD) group
T1 construct: from tissue; host or cells: liver and white adipose tissue sections of high-fat-diet C57BL/6 mice
T1 sequence (P25446 22-327): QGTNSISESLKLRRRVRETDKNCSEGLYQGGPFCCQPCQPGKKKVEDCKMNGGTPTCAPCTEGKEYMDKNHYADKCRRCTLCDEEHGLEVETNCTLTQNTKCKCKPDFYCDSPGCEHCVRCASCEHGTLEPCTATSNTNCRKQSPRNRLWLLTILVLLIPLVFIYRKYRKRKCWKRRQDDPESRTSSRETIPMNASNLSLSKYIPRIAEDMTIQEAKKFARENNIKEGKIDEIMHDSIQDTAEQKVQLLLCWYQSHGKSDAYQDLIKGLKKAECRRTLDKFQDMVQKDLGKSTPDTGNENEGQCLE
Description: After the animal experiment was completed, mice were sacrificed to isolate liver tissues and white adipose tissues and prepare tissue sections. The prepared liver tissue and white adipose tissue sections were treated with an antigen retrieval buffer at 95° C. for 25 minutes and then cooled at room temperature. Thereafter, the tissue sections were treated with Tris Based Saline+Tween20 (TBST) containing 1% bovine serum albumin (BSA), 10% goat serum and 0.05% Tween 20 to undergo a blocking process, and were reacted with a Fas receptor-specific primary antibody at 4° C. for 18 hours. Thereafter, tissue sections were washed with TBST and reacted with a FITC-bound secondary antibody at room temperature for 2 hours.
In addition, in order to examine the tissue-binding ability of the peptide, the peptide to which Alexa 488 was bound was reacted with the primary antibody at 4° C. for 18 hours. The nuclei were stained with Hoechst 33342 (GE Healthcare), washed with TBST, and then confirmed.
The fluorescence signal of each tissue section was analyzed under a TCS-SP5 confocal microscope (Leica, Germany).

obesity model mice [3] = test: TUNEL staining of dead cells, obesity model mice, intravenous FBP-8; assay type: in vivo, C57BL/6 mice; conditions: intravenous twice a week for 5 weeks
Description: (§2) All animal experiments performed for the present invention were approved by the Institutional Animal Care and Use Committee of Hanyang University. […] Thereafter, depending on the experimental group, 60 μg/one time of FBP8 were administered by intravenous injection twice a week for a total of 5 weeks (FIG. 13), or FBP7 was administered by subcutaneous injection twice a day.
Furthermore, a terminal deoxynucleotidyl transferase dUTP nick end labeling (TUNEL) analysis for each tissue was performed with an in situ cell death detection kit (Millipore, USA). Thereafter, the fluorescence signals were analyzed under a TCS-SP5 confocal microscope by staining the nuclei with Hoechst 33342, and the fluorescence signals of each cell were analyzed with the Image J program.
(§3) Obesity model mice were produced by feeding normal mice a high fat diet for 8 weeks, and FBP-8 was administered by intravenous injection twice a week for a total of 5 weeks (FIG. 13). After five weeks, the obesity model mice were sacrificed to isolate white adipose tissues and liver tissues and analyze the proportion of dead cells by TUNEL staining.

obesity model mice [4] = test: Gene expression in white adipose and liver tissues, obesity model mice, intravenous FBP-8; assay type: in vivo, C57BL/6 mice
Description: as §2
mRNA was extracted from liver tissues and white adipose tissues using RNAiso (Takara, Japan), and cDNA was synthesized with an iscript cDNA synthesis kit (Bio-Rad Laboratories, USA). Thereafter, a gene expression level was analyzed by the 7500 Fast Real-time PCR system (Applied Biosystems, USA). The expression level of each gene was normalized with the expression level of a GAPDH gene, and then calculated as a relative gene expression level with respect to the control.
as §3

obesity model mice [5] = test: Glucose tolerance test (GTT) and insulin tolerance test (ITT), obesity model mice, intravenous FBP-8; assay type: in vivo, C57BL/6 mice
Description: as §2
For a glucose intolerance analysis, a dose of 2 g/kg of glucose was injected by intraperitoneal injection into each experimental group maintained in a fasting state for 12 hours, and blood glucose levels were measured after 30, 60 and 120 minutes by Accu-check (Roche, USA).
Insulin resistance was analyzed by measuring blood glucose levels 30 minutes, 60 minutes and 120 minutes after a dose of 0.75 U/kg of insulin was injected by intraperitoneal injection into each experimental group maintained in a fasting state for 4 hours.

[6] = compared to negative control (CtrFBP)

YCDEHFCY (Fas binding peptide-8 (FBP-8))
cytotoxicity (3T3L1 cell line [1]): little cytotoxicity was observed | extracellular release of fatty acids (FFA) (3T3L1 cell line [2]): significantly inhibited | co-staining with Fas-specific antibody in liver and white adipose tissue sections (Fas): the stained sites coincided | proportion of dead cells in liver tissue (TUNEL) (obesity model mice [3]): 9±2.37% | proportion of dead cells in white adipose tissue (TUNEL) (obesity model mice [3]): 31+2.37% | expression level of CD206 (anti-inflammatory macrophage marker) in liver tissues (obesity model mice [4]): no significant change | expression levels of F480 and CD11c (pro-inflammatory macrophage markers) in white adipose tissue (obesity model mice [4]; [6]): significantly reduced | expression levels of F480 and CD11c in liver tissues (obesity model mice [4]; [6]): decreased | expression levels of inflammation-related genes Fas, TNF-α, MCP-1 and IL-6 in liver tissues (obesity model mice [4]; [6]): significantly reduced | expression of inflammation-related genes Fas, TNF-α, MCP-1 and IL-6 in white adipose tissues (obesity model mice [4]; [6]): reduced | reduction of stearoyl-CoA desaturase (SCD-1) expression level in liver tissues (obesity model mice [4]; [6]): about 30+5.32% | blood glucose changes / glucose metabolism in GTT and ITT (obesity model mice [5]): improved glucose metabolism
